Where two headings read alike, the source gives them in different places.

One assay concerns the target GST-PPARG-LBD (Homo sapiens (Human), UniProt P37231). Description: Lanthascreen PPARG competitive binding assay (Invitrogen, TR-FRET). The conditions noted are these: NA = not active, inc = incomplete curve, read-out: IC50 (nM) Lantha. In short, it runs like this: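 TR-FRET competitive binding of GST-PPARG-LBD with 5 nM Tb-GST-antibody and 5 nM Fluormone Pan-PPAR Green tracer, in TR-FRET buffer C. Compound serially diluted from 10 μM, 2 h dark incubation, in triplicate. Readout is 520/490 nm emission ratio (340 nm excitation), expressed as fold change over 2% DMSO control.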

Assay [1] has as its target Gal-4-PPAR (human PPAR LBD fused to GAL4 DNA-binding domain) (Homo sapiens (Human), UniProt P37231). Description: GAL4-PPARG LBD / UAS-luciferase transactivation assay in HEK 293T cells. It is filed as cell-based.
[2] abbreviates: Lanthascreen competitive binding.
Setting [3] is: GAL4 transactivation, HEK 293T cells; NA = not active; read-out: EC50 (nM) GAL4.
Where [4] appears, read: HEK-293T, 18 h; read-out: % transactivation at 10 μM (GAL4).
The mark [5] stands for this setting: Lanthascreen PPARG competitive binding.
Setting [6] is: GAL4 transactivation; read-out: EC50 (nM) GAL4.
Setting [7] is: HEK-293T, 18 h, read-out: % transactivation at 10 μM (GAL4).

Sequence of Gal-4-PPAR (human PPAR LBD fused to GAL4 DNA-binding domain) (P37231 238-503): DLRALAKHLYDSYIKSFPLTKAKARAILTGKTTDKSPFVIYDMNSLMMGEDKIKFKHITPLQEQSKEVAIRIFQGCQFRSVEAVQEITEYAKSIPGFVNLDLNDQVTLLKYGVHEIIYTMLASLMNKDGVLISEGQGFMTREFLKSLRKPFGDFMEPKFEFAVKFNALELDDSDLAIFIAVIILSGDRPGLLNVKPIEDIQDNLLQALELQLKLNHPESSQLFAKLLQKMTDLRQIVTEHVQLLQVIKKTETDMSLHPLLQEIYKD
Sequence of GST-PPARG-LBD (P37231 238-503): as above

As to `Cc1c(C)n(Cc2ccc(-c3ccccc3C(=O)O)cc2)c2ccc(C(=O)N[C@@H](C)c3ccc(C(F)(F)F)cc3C(F)(F)F)cc12` [Example 210, (S)-4′-((5-((1-(2,4-bis(trifluoromethyl)phenyl)ethyl)carbamoyl)-2,3-dimethyl-1H-indol-1-yl)methyl)-[1,1′-biphenyl]-2-carboxylic acid], the IC50 on GST-PPARG-LBD (setting [2]) is 241 nM. The concentration for a half-maximal effect (EC50) in assay [1] (setting [3]) is 1290 nM. The activation at 10 µM in assay [1] (setting [4]) stood at 20%.

Regarding `Cc1c(C)n(Cc2ccc(-c3ccccc3-c3nnn[nH]3)cc2)c2ccc(C(=O)N[C@H](C)c3cccc(Br)c3)cc12` [Example 187, (R)-1-((2′-(1H-tetrazol-5-yl)-[1,1′-biphenyl]-4-yl)methyl)-N-(1-(3-bromophenyl)ethyl)-2,3-dimethyl-1H-indole-5-carboxamide], the IC50 at GST-PPARG-LBD (setting [2]) was less than 1 nM. Further, in assay [1] (setting [3]), the concentration giving a half-maximal response (EC50) was 5 nM. Moreover, the activation at 10 µM in assay [1] (setting [4]) was determined as 20%.

`Cc1c(C)n(Cc2ccc(-c3ccccc3C(=O)O)cc2)c2ccc(C(=O)N[C@@H](C)c3ccc(Cl)nc3)cc12` [Example 262, (S)-4′-((5-((1-(6-chloropyridin-3-yl)ethyl)carbamoyl)-2,3-dimethyl-1H-indol-1-yl)methyl)-[1,1′-biphenyl]-2-carboxylic acid]: the IC50 on GST-PPARG-LBD (setting [2]) amounted to 144 nM. In addition, in assay [1] (setting [3]), the concentration for a half-maximal effect (EC50) is 4000 nM. Besides, the activation at 10 µM in assay [1] (setting [4]) was determined as 35%.

On to `Cc1c(C)n(Cc2ccc(-c3ccccc3C(=O)O)cc2)c2ccc(C(=O)N[C@@H](C)c3cccc(C(F)(F)F)c3F)cc12` [Example 299, (S)-4′-((5-((1-(2-Fluoro-3-(trifluoromethyl)phenyl)ethyl)carbamoyl)-2,3-dimethyl-1H-indol-1-yl)methyl)-[1,1′-biphenyl]-2-carboxylic acid], for which the IC50 on GST-PPARG-LBD (setting [5]) came to 27 nM. For the same compound, the EC50 in assay [1] (setting [6]) was determined as 346 nM. Also, the activation at 10 µM in assay [1] (setting [4]) is 15%.

On to `Cc1c(C)n(Cc2ccc(-c3ccccc3C(=O)O)cc2)c2ccc(C(=O)N[C@H](C)c3cccc(Br)c3)cc12` [Example 296, (R)-4′-((5-((1-(3-Bromophenyl)ethyl)carbamoyl)-2,3-dimethyl-1H-indol-1-yl)methyl)-[1,1′-biphenyl]-2-carboxylic acid], for which the IC50 at GST-PPARG-LBD (setting [5]) is less than 1 nM. Moreover, the 50% effective concentration (EC50) in assay [1] (setting [6]) amounted to 69 nM. Further, the activation at 10 µM in assay [1] (setting [4]) worked out at 35%.

For `Cc1c(C)n(Cc2ccc(-c3ccccc3C(=O)O)cc2)c2ccc(C(=O)N[C@H](C)c3ccc(C(F)(F)F)cc3C(F)(F)F)cc12` [Example 209, (R)-4′-((5-((1-(2,4-bis(trifluoromethyl)phenyl)ethyl)carbamoyl)-2,3-dimethyl-1H-indol-1-yl)methyl)-[1,1′-biphenyl]-2-carboxylic acid], the half-maximal inhibitory concentration (IC50) at GST-PPARG-LBD (setting [2]) amounted to 11 nM. Moreover, the concentration for a half-maximal effect (EC50) in assay [1] (setting [3]) stood at 211 nM. Also, the activation at 10 µM in assay [1] (setting [4]) turned out to be 10%.

With `Cc1c(C)n(Cc2ccc(-c3ccccc3-c3n[nH]c(=O)o3)cc2)c2ccc(C(=O)N[C@@H](C)c3cccc(C(C)C)c3)cc12` [Example 245, (S)—N-(1-(3-isopropylphenyl)ethyl)-2,3-dimethyl-1-((2′-(5-oxo-4,5-dihydro-1,3,4-oxadiazol-2-yl)-[1,1′-biphenyl]-4-yl)methyl)-1H-indole-5-carboxamide], the IC50 at GST-PPARG-LBD (setting [2]) stood at 7 nM. The compound also showed a half-maximal effective concentration (EC50) in assay [1] of 454 nM. In assay [1] (setting [4]), the activation at 10 µM is 10%.

With `COc1cc(C(F)(F)F)ccc1[C@H](C)NC(=O)c1ccc2c(c1)c(C)c(C)n2Cc1ccc(-c2ccccc2C(=O)O)cc1` [Example 223, (S)-4′-((5-((1-(2-methoxy-4-(trifluoromethyl)phenyl)ethyl)carbamoyl)-2,3-dimethyl-1H-indol-1-yl)methyl)-[1,1′-biphenyl]-2-carboxylic acid], the IC50 on GST-PPARG-LBD (setting [2]) is 73 nM. For the same compound, the concentration for a half-maximal effect (EC50) in assay [1] (setting [3]) was determined as 676 nM. The activation at 10 µM in assay [1] (setting [4]) is 10%.

Consider `Cc1c(C)n(Cc2ccc(-c3ccccc3C(=O)O)cc2)c2ccc(C(=O)NCc3ccc(F)cc3F)cc12` [Example 164, 4′-((5-((2,4-difluorobenzyl)carbamoyl)-2,3-dimethyl-1H-indol-1-yl)methyl)-[1,1′-biphenyl]-2-carboxylic acid], for which, on GST-PPARG-LBD (setting [2]), the IC50 worked out at 19 nM. Besides, in assay [1] (setting [3]), the EC50 turned out to be 987 nM. Also, the activation at 10 µM in assay [1] (setting [7]) is 30%.

As for `Cc1cccc([C@H](C)NC(=O)c2ccc3c(c2)c(C)c(C)n3Cc2ccc(-c3ccccc3C(=O)O)cc2)c1` [Example 295, (S)-4′-((2,3-Dimethyl-5-((1-(m-tolyl)ethyl)carbamoyl)-1H-indol-1-yl)methyl)-[1,1′-biphenyl]-2-carboxylic acid], the IC50 on GST-PPARG-LBD (setting [5]) turned out to be 11 nM. Also, in assay [1] (setting [6]), the EC50 was found to be 60 nM. Moreover, the activation at 10 µM in assay [1] (setting [4]) came out at 10%.

With `Cc1c(C)n(Cc2ccc(-c3ccccc3C(=O)O)cc2)c2ccc(C(=O)N[C@@H](C)c3ccc(C(F)(F)F)c(F)c3)cc12` [Example 228, (S)-4′-((5-((1-(3-fluoro-4-(trifluoromethyl)phenyl)ethyl)carbamoyl)-2,3-dimethyl-1H-indol-1-yl)methyl)-[1,1′-biphenyl]-2-carboxylic acid], the IC50 at GST-PPARG-LBD (setting [2]) is 53 nM. Besides, the EC50 in assay [1] (setting [3]) was determined as 1060 nM. Besides, in assay [1] (setting [4]), the activation at 10 µM is 15%.

Turning to `Cc1c(C)n(Cc2ccc(-c3ccccc3C(=O)O)cc2)c2ccc(C(=O)N[C@H](C)c3ccc(C4CC4)nc3)cc12` [Example 264, (R)-4′-((5-((1-(6-cyclopropylpyridin-3-yl)ethyl)carbamoyl)-2,3-dimethyl-1H-indol-1-yl)methyl)-[1,1′-biphenyl]-2-carboxylic acid], at GST-PPARG-LBD (setting [2]), the half-maximal inhibitory concentration (IC50) is 32 nM. The concentration giving a half-maximal response (EC50) in assay [1] (setting [3]) was 1990 nM. Also, the activation at 10 µM in assay [1] (setting [4]) came out at 35%.

Consider `Cc1c(C)n(Cc2ccc(-c3ccccc3C(=O)O)cc2)c2ccc(C(=O)N[C@H](C)c3cccc(Br)n3)cc12` [Example 271, (R)-4′-((5-(1-(6-bromopyridin-2-yl)ethylcarbamoyl)-2,3-dimethyl-1H-indol-1-yl)methyl)biphenyl-2-carboxylic acid], for which the half-inhibitory concentration (IC50) at GST-PPARG-LBD (setting [2]) is 2 nM. Moreover, the concentration for a half-maximal effect (EC50) in assay [1] (setting [3]) came out at 52 nM. Also, the activation at 10 µM in assay [1] (setting [4]) turned out to be 20%.

Regarding `Cc1c(C)n(Cc2ccc(-c3ccccc3C(=O)O)cc2)c2ccc(C(=O)N[C@@H](C)c3ccc(F)c(F)c3)cc12` [Example 233, (S)-4′-((5-((1-(3,4-difluorophenyl)ethyl)carbamoyl)-2,3-dimethyl-1H-indol-1-yl)methyl)-[1,1′-biphenyl]-2-carboxylic acid], the IC50 on GST-PPARG-LBD (setting [2]) stood at 9 nM. The half-maximal effective concentration (EC50) in assay [1] (setting [3]) turned out to be 166 nM. Also, the activation at 10 µM in assay [1] (setting [4]) amounted to 40%.

For `Cc1c(C)n(Cc2ccc(-c3ccccc3-c3nnn[nH]3)cc2)c2ccc(C(=O)N[C@@H](C)c3cccc(C4CC4)c3)cc12` [Example 188, (S)-1-((2′-(1H-tetrazol-5-yl)-[1,1′-biphenyl]-4-yl)methyl)-N-(1-(3-cyclopropylphenyl)ethyl)-2,3-dimethyl-1H-indole-5-carboxamide], the concentration for half-maximal inhibition (IC50) on GST-PPARG-LBD (setting [2]) was found to be 10 nM. Moreover, in assay [1] (setting [3]), the concentration giving a half-maximal response (EC50) stood at 3150 nM. In assay [1] (setting [4]), the activation at 10 µM is 20%.

As for `Cc1c(F)cccc1[C@H](C)NC(=O)c1ccc2c(c1)c(C)c(C)n2Cc1ccc(-c2ccccc2C(=O)O)cc1` [Example 145, (S)-4′-((5-((1-(3-fluoro-2-methylphenyl)ethyl)carbamoyl)-2,3-dimethyl-1H-indol-1-yl)methyl)-[1,1′-biphenyl]-2-carboxylic acid], the IC50 at GST-PPARG-LBD (setting [2]) was less than 1 nM. For the same compound, the EC50 in assay [1] (setting [3]) amounted to 70 nM. In assay [1] (setting [4]), the activation at 10 µM was 35%.

`CCCc1ccc([C@H](C)NC(=O)c2ccc3c(c2)c(C)c(C)n3Cc2ccc(-c3ccccc3C(=O)O)cc2)cc1` [Example 251, (S)-4′-((2,3-dimethyl-5-(1-(4-propylphenyl)ethylcarbamoyl)-1H-indol-1-yl)methyl)biphenyl-2-carboxylic acid]: on GST-PPARG-LBD (setting [2]), the half-inhibitory concentration (IC50) came out at 40 nM. In assay [1] (setting [3]), the EC50 was found to be 1610 nM. The activation at 10 µM in assay [1] (setting [4]) came to 30%.

As to `Cc1c(C)n(Cc2ccc(-c3ccccc3C(=O)O)cc2)c2ccc(C(=O)N[C@@H](C)c3cc(C(F)(F)F)ccc3Cl)cc12` [Example 302, (S)-4′-((5-((1-(2-Chloro-5-(trifluoromethyl)phenyl)ethyl)carbamoyl)-2,3-dimethyl-1H-indol-1-yl)methyl)-[1,1′-biphenyl]-2-carboxylic acid], the IC50 on GST-PPARG-LBD (setting [5]) stood at 3 nM. The half-maximal effective concentration (EC50) in assay [1] (setting [6]) amounted to 48 nM. Also, the activation at 10 µM in assay [1] (setting [4]) is 20%.

Regarding `Cc1c(C)n(Cc2ccc(-c3ccccc3C(=O)O)cc2)c2ccc(C(=O)N[C@@H](C)c3cccc4ccccc34)cc12` [Example 152, (S)-4′-((2,3-dimethyl-5-((1-(naphthalen-1-yl)ethyl)carbamoyl)-1H-indol-1-yl)methyl)-[1,1′-biphenyl]-2-carboxylic acid], the IC50 on GST-PPARG-LBD (setting [2]) turned out to be 256 nM. Further, the EC50 in assay [1] (setting [3]) amounted to 766 nM. For the same compound, the activation at 10 µM in assay [1] (setting [4]) is 17%.

On to `Cc1c(C)n(Cc2ccc(-c3ccccc3C(=O)O)cc2)c2ccc(C(=O)N[C@H](C)c3cccc(C(F)(F)F)c3Cl)cc12` [Example 231, (R)-4′-((5-((1-(2-chloro-3-(trifluoromethyl)phenyl)ethyl)carbamoyl)-2,3-dimethyl-1H-indol-1-yl)methyl)-[1,1′-biphenyl]-2-carboxylic acid], for which the IC50 on GST-PPARG-LBD (setting [2]) came to 2 nM. In addition, the EC50 in assay [1] (setting [3]) is 131 nM. The activation at 10 µM in assay [1] (setting [7]) worked out at 10%.

Take `Cc1c(C)n(Cc2ccc(-c3ccccc3C(=O)O)cc2)c2ccc(C(=O)N[C@H](C)c3c(Cl)cccc3Cl)cc12` [Example 141, (R)-4′-((5-((1-(2,6-dichlorophenyl)ethyl)carbamoyl)-2,3-dimethyl-1H-indol-1-yl)methyl)-[1,1′-biphenyl]-2-carboxylic acid]: the half-maximal inhibitory concentration (IC50) at GST-PPARG-LBD (setting [2]) was found to be 30 nM. Also, the EC50 in assay [1] (setting [3]) turned out to be 529 nM. In assay [1] (setting [4]), the activation at 10 µM stood at 20%.

These data come from patent US8957093B2, “N-biphenylmethylindole modulators of PPARG” (The Scripps Research Institute, priority 2011, dated 2015).
